In patent US7449495B2, “Retinoid derivatives with antiangiogenic, antitumoral and proapoptotic activities” (Sigma-Tau Industrie Farmaceutiche Riunite S.p.A., priority 2001, dated 2008):
Read-outs that look alike come from different tables or passages of the source.

What was measured:
[1] = system: ornithine decarboxylase in mouse epidermis; conditions: in vivo; cited from earlier work
[2] = system: Human ovarian carcinoma A2780; test: Cytotoxicity test (sulphorodamine B), A2780; format: cell-based; conditions: 24 h incubation, survival 48 h after removal
Description: (§1) Different cell lines deriving from solid tumors were also used. • 1. Human prostate carcinoma PC3 and DU145. These cell lines were maintained in RPMI 1640 medium containing 10% FCS, 1% sodium pyruvate and 1% glutamine; • 2. Human colon adenocarcinoma LoVo. This cell line was maintained in HAM's F-12 medium, containing 10% FCS and 1% glutamine. • 3. Human ovarian carcinoma such as A2780 and A2780/Dx, sensitive and resistant to drugs, respectively (doxorubicin, taxol, etoposide, vincristine); IGROV-1 and IGROV-1/Pt, sensitive and resistant to platinum-based chemotherapy, respectively, were maintained in RPMI 1640 medium containing 10% FCS, 1% sodium pyruvate and 1% glutamine; • 4. Human melanoma MeWo and MeS 2.21, glioblastoma GBM, no small cell lung carcinomas A431, NCI—H460, osteosarcomas SAOS and U2OS were maintained in RPMI 1640 medium containing 10% FCS, 1% sodium pyruvate and 1% glutamine.
(§2) The cytotoxicity tests were carried out using NB4 or HL-60 cells in suspension (10000/well). The cells were seeded in a volume of 250 μl in 96 well plates and incubated for 24 hours at 37° C. […] The optical density was measured using a Multiskan spectrophotometer at 540 nm. […]
(§3) Cell survival was determined by incubation with ST1926 for 24 hours, 48 hours after the removal of the compound. […]

[3] = system: KG-1 and HL-60R leukemia and MDA-MB-231 breast cancer cells; conditions: cited from earlier work
[4] = system: NB4 acute promyelocytic leukaemia cell line; test: Cytotoxicity test (sulphorodamine B), NB4; format: cell-based, human; conditions: 24 h incubation, survival 48 h after removal, read-out: IC50
Description: (§4) To carry out the cytotoxicity tests, two acute promyelocytic leukaemia (APL) cell lines were used. • 1. Cell line NB4, carrying the chromosomal translocation t(15; 17) which generates the fusion protein PML/RARα. This cell line is extremely sensitive to the differentiating action of pharmaceutical doses of ATRA (10^−7-10^−6 M); • 2. Cell line HL60, which responds to ATRA less sensitively with respect to cell line NB4.
(§5) These cell lines were maintained in RPMI 1640 containing 10% foetal calf serum (FCS) and 1% glutamine.
The cytotoxicity tests were carried out using NB4 or HL-60 cells in suspension (10000/well). The cells were seeded in a volume of 250 μl in 96 well plates and incubated for 24 hours at 37° C. The following day, test compound ST 1926 [(2E)-3-[3′-(1-Adamantyl)-4′-hydroxy[1,1′-biphenyl]-4-yl]-2-propenoate/ic acid] was added at increasing concentrations, and the cells were incubated for a further 24 hours at 37° C. in a humidified atmosphere containing 5% CO2. On the 3rd day, the medium was removed by centrifuging the plate at 1600×g for 10 min and the supernatant decanted. 250 μl of PBS were added; then the plates were centrifuged again at 1600×g for 10 minutes and the supernatant decanted. 200 μl/well of RPMI 1640 medium containing 10% FCS were added and the plates were incubated at 37° C. for a further 48 hours. On the 5th day, the plates were again centrifuged at 1600×g for 10 minutes, and the medium was removed by upturning the plates, 200 μl of PBS and 50 μl of cold, 80% TCA were added. The plates were then left to incubate on ice for at least 1 hour. The TCA was removed by upturning; the plates were washed three times by immersion in distilled water and dried first on paper, then with a jet of hot air. To all wells were added 200 μl of 0.4% sulphorodamine B in 1% acetic acid. The plates were incubated at room temperature for a further 30 minutes. […] The optical density was measured using a Multiskan spectrophotometer at 540 nm.
as §3

[5] = system: vitamin-A deficient hamster trachea in organ culture; conditions: cited from earlier work
[6] = system: HL60 acute promyelocytic leukaemia cell line; test: Cytotoxicity test (sulphorodamine B), HL-60; format: cell-based; conditions: Homo sapiens, 24 h incubation, survival 48 h after removal
Description: as §4, §5
The cytotoxicity tests were carried out using NB4 or HL-60 cells in suspension (10000/well). The cells were seeded in a volume of 250 μl in 96 well plates and incubated for 24 hours at 37° C. The following day, test compound ST 1926 [(2E)-3-[3′-(1-Adamantyl)-4′-hydroxy[1,1′-biphenyl]-4-yl]-2-propenoate/ic acid] was added at increasing concentrations, and the cells were incubated for a further 24 hours at 37° C. in a humidified atmosphere containing 5% CO2. On the 3rd day, the medium was removed by centrifuging the plate at 1600×g for 10 min and the supernatant decanted. […] The optical density was measured using a Multiskan spectrophotometer at 540 nm.
as §3

[7] = system: Human prostate carcinoma DU145; test: Cytotoxicity test (sulphorodamine B), DU145; format: cell-based; conditions: DU-145, 24 h incubation, survival 48 h after removal
Description: as §1, §2, §3

O=C(O)/C=C/c1ccc(-c2ccc(O)c(C34CC5CC(CC(C5)C3)C4)c2)cc1 [ST1926, E-4-(3-(1-adamantyl)-4-hydroxyphenyl)cinnamic acid]
activity in the ODC assay compared with compound 1 (in words) [1]: lower activities
IC50 [2]: 100 nM
induction of cancer cell apoptosis (in words) [3]: effectively induced cancer cell apoptosis
IC50 [4]: 20 nM
IC50 ([4]; Homo sapiens): 22 nM
activity in the TOC assay compared with compound 1 (in words) [5]: lower activities
IC50 [6]: 200 nM
IC50 [7]: 100 nM
